The results in this text go back to PubChem BioAssay AID1996.

In general, kinetic solubility refers to the concentration staying in solution when a stock, usually in DMSO, is diluted into the medium.

Each structure is given as a SMILES string. Converted amounts (≈) assume the structure as drawn.

For this data set the following is noted: buffer; pH 7.4; 200.0 µM.
Compound `CS(=O)(=O)Nc1cc2c3c(c1)CCC(=O)N3CCC2` registered a solubility (kinetic) of 39.9 µg/mL (≈ 142 µM).

Take `O=C(CN1C(=O)c2ccccc2S1(=O)=O)c1ccc(F)cc1`: the solubility (kinetic) was found to be 9.7 µg/mL (≈ 30.4 µM).

`CC1CC(C)(C)NC(=S)O1` (stereo unspecified): the solubility (kinetic) is above 23.9 µg/mL.

For the compound `COc1ccccc1C(=O)NC(C)c1cccc2ccccc12` (stereo unspecified), the kinetic solubility came out at 18.7 µg/mL (≈ 61.2 µM).

In the case of `O=C1c2ccccc2NC(c2cccc(O)c2)N1c1ccccc1` (stereo unspecified), the solubility (kinetic) stood at 2.9 µg/mL (≈ 9.17 µM).

Regarding `Cc1ccc(NC(=O)c2ccc(S(=O)(=O)N3CCOCC3)cc2)cc1`, the solubility (kinetic) amounted to 3.6 µg/mL (≈ 9.99 µM). The solubility kinetic values of the last two compounds are within 1.5-fold of each other.

Compound `COc1cc(NC(=O)Cc2ccccc2)nc(OC)n1` registered a kinetic solubility above 41 µg/mL.

`O=C(O)c1ccc(Cn2cc(/C=C\[N+](=O)[O-])c3ccccc32)o1` yielded a kinetic solubility above 46.8 µg/mL.

In the case of `Oc1c(C(c2ccccn2)N2CCOCC2)ccc2cccnc12` (stereo unspecified), the solubility (kinetic) is 1.7 µg/mL (≈ 5.29 µM).

Take `COc1ccc(Oc2ncccc2[N+](=O)[O-])cc1`: the solubility (kinetic) was above 36.9 µg/mL.

Take `CN(C(=S)Nc1cccnc1)c1ccc(O)cc1`: the solubility (kinetic) worked out at 29 µg/mL (≈ 112 µM).

As for `CCc1ccc(CNC(=O)C2CC(=O)N(C3CCCC3)C2)cc1` (stereo unspecified), the kinetic solubility is above 47.2 µg/mL.

The compound `CC(=O)C1=C(C)NC(=S)NC1c1cccc([N+](=O)[O-])c1` (stereo unspecified) had a solubility (kinetic) of 3.5 µg/mL (≈ 12 µM).

For `O=C(Nc1ccncc1)Nc1cccc(Cl)c1`, the solubility (kinetic) was determined as 35.9 µg/mL (≈ 145 µM).

`CCN(C(=O)COC(=O)c1cc2c(s1)CCCC2)c1c(N)n(Cc2ccccc2)c(=O)[nH]c1=O` came in with a kinetic solubility of 3.3 µg/mL (≈ 6.84 µM).

Consider `Cc1cc(C)nc(SCC(=O)c2ccc(C)c(C)c2)n1`, for which the solubility (kinetic) was 19.3 µg/mL (≈ 67.4 µM).

As for `C=CC(C)C(C(=O)c1ccccc1)N(C)C` (stereo unspecified), the kinetic solubility worked out at 12 µg/mL (≈ 55.2 µM).

In the case of `CCc1nc2ccccc2c(=O)n1-c1ccccc1OC`, the kinetic solubility is above 42 µg/mL.

The compound `CCOC(=O)c1cnc(C(F)(F)F)nc1Oc1ccccc1` returned a solubility (kinetic) of 11.7 µg/mL (≈ 37.5 µM).

`O=C(COC(=O)c1cccc(OC(F)F)c1)NCC1CCCO1` (stereo unspecified) displayed a solubility (kinetic) above 49.4 µg/mL.

Consider `O=C(COC(=O)c1ccc[n+]([O-])c1)Nc1ccccc1OC(F)F`, for which the kinetic solubility is above 50.7 µg/mL.

`O=C(Nc1ccccc1F)Nc1cccnc1Cl` showed a kinetic solubility of 7.8 µg/mL (≈ 29.4 µM).

Compound `OC(COc1ccccc1)CN1CCCC1` (stereo unspecified) came in with a solubility (kinetic) above 33.2 µg/mL.

`NC(=O)C1CC(=O)N(c2ccc(OCC(=O)NCc3ccccc3)cc2)C1` (stereo unspecified) gave a solubility (kinetic) above 55.1 µg/mL.

`O=C(CCCCC(=O)Nc1ccccc1)Nc1ccccc1` yielded a kinetic solubility of 3.1 µg/mL (≈ 10.5 µM).

On to `Cc1ccc(C(=O)OCC(=O)NC(C)c2ccccc2)cc1C` (stereo unspecified), for which the solubility (kinetic) was determined as 1.1 µg/mL (≈ 3.53 µM). This solubility kinetic lies about 2.8-fold lower than the previous one.

In turn, `COc1ccc(NS(=O)(=O)c2ccc(-c3ccccn3)s2)cc1` returned a solubility (kinetic) of 0.8 µg/mL (≈ 2.31 µM). This solubility kinetic and that of the compound before are within 1.5-fold of each other.

`Cc1onc(-c2c(F)cccc2Cl)c1C(=O)c1ccc(F)cc1` had a solubility (kinetic) of 9.1 µg/mL (≈ 27.3 µM). Compared with the last compound, the solubility kinetic is about 11-fold higher.

Consider `Cc1ccc(OCCCC(=O)NCc2ccco2)c(C)c1`, for which the solubility (kinetic) was above 43.1 µg/mL.

`Cc1cccc(C)c1NC(=O)NC1CCc2ccccc21` (stereo unspecified) gave a kinetic solubility of 1 µg/mL (≈ 3.57 µM).

Compound `O=C(Nc1nc(-c2cccs2)c(C(=O)C(F)(F)F)s1)c1ccco1` yielded a solubility (kinetic) of 3.8 µg/mL (≈ 10.2 µM).

As to `CCOC(=O)COc1cc2oc(=O)cc(C)c2cc1[N+](=O)[O-]`, the solubility (kinetic) worked out at 3 µg/mL (≈ 9.76 µM).

For the compound `CC(NC(=O)COC(=O)/C=C/c1cccc(F)c1)c1ccccc1` (stereo unspecified), the solubility (kinetic) was 6.1 µg/mL (≈ 18.6 µM).

Regarding `Cc1ccc(Oc2ncccc2C(=O)NCC(=O)O)cc1`, the solubility (kinetic) is 42.7 µg/mL (≈ 149 µM). This solubility kinetic lies about 7-fold higher than the previous one.

`Cc1cnc(=O)[nH]c1SCc1cccc([N+](=O)[O-])c1`: the solubility (kinetic) stood at 5.6 µg/mL (≈ 20.2 µM).

In turn, `O=C(Nc1cccnc1Cl)c1cc(-c2ccccc2O)on1` came in with a kinetic solubility of 0.9 µg/mL (≈ 2.85 µM).

Take `CCN1CCc2c(OCC(=O)Nc3ccc4c(c3)OCCO4)cccc2C1=O`: the kinetic solubility was 29.8 µg/mL (≈ 77.9 µM).

Take `Cc1ccc(N(CC(=O)N2CCN(Cc3ccccc3)CC2)S(C)(=O)=O)cc1C`: the kinetic solubility came to 50.9 µg/mL (≈ 122 µM).

Take `Cc1cccc(C(=O)NCC(=O)N2CCCC2)c1`: the kinetic solubility was above 36.9 µg/mL.

For the compound `Cc1ccc(C(=O)N2CCC(C(=O)NCc3ccco3)CC2)cc1`, the kinetic solubility was above 49 µg/mL.

Regarding `C=CCNC(=S)Nc1cccc(N)c1`, the kinetic solubility is above 31.1 µg/mL.

In turn, `O=C(O)/C=C/c1ccc(S(=O)(=O)Nc2cccnc2)cc1` registered a kinetic solubility above 45.6 µg/mL.

The compound `Cc1ccc(-c2csc3nc[nH]c(=O)c23)cc1C` yielded a kinetic solubility of 6.6 µg/mL (≈ 25.7 µM).

As to `O=C(COC(=O)CCC(=O)N1CCOCC1)Nc1ccc(Br)cc1Br`, the kinetic solubility is above 71.7 µg/mL.

In turn, `CCN(CC)C1CC(=O)N(c2cccc(Cl)c2)C1=O` (stereo unspecified) returned a solubility (kinetic) above 42.1 µg/mL.

`COC(=O)c1ccc(OC(=O)c2ccncc2)cc1O` displayed a kinetic solubility above 41 µg/mL.

Take `COCCNC(=O)C(NC(=O)C1CCCCC1)C(C)C` (stereo unspecified): the kinetic solubility is above 42.7 µg/mL.

In turn, `CC1CCCC(C)N1C(=O)COC(=O)c1cccs1` (stereo unspecified) returned a kinetic solubility above 42.2 µg/mL.

`O=CN1CCN(C(=S)Nc2ccc(OC(F)F)cc2)CC1` showed a kinetic solubility above 47.3 µg/mL.

`OC(c1nc2ccc(F)cc2[nH]1)C(O)c1nc2ccc(F)cc2[nH]1` (stereo unspecified): the kinetic solubility was above 49.5 µg/mL.

Compound `Cn1nc(-c2ccc(Cl)cc2)cc1NC(=O)CC(C)(C)CC(=O)O` came in with a solubility (kinetic) above 52.5 µg/mL.
